Assays:
[1] = test system: unfractionated heparin (UFH); assay: aPTT clotting assay, UFH 0.2 U/mL in plasma (Example 7); format: biochemical; settings: UFH 0.2 U/mL in plasma
Experimental: aPTT clotting Assay. Unfractionated heparin was mixed with plasma at a final concentration of 0.2 U/mL. […] The ACL Elite Hemostasis analyzer (Beckman Coulter™) was used to add aPTT reagent (HemosIL SynthASil) to supplemented plasma. Clotting was initiated by addition of CaCl2 and time to clot was recorded.

[2] = test system: enoxaparin (ENOX); assay: FXa chromogenic assay (absence of plasma), enoxaparin; settings: enoxaparin 0.1 μg/mL, absence of plasma
[3] = test system: fondaparinux (FONDAPX); assay: FXa chromogenic assay (absence of plasma), fondaparinux; settings: fondaparinux 0.02 μg/mL, absence of plasma

COc1ccc(NC(=O)[C@H](CCCNC(=N)N)NC(=O)c2cc(NC(=O)[C@H](CCCNC(=N)N)NC(=O)c3cc(NC(=O)[C@H](CCCNC(=N)N)NC(=O)c4cc(NC(=O)[C@H](C)NC(=O)CCCCNC(=N)N)ccc4OC)ccc3OC)ccc2OC)cc1C(N)=O [Compound 92]
UFH (aPTT) EC50 [1]: 7.17 µg/mL
ENOX (FXa) EC50 [2]: 0.55 µg/mL
FONDAPX (FXa) EC50 [3]: 1.40 µg/mL

COc1ccc(NC(=O)[C@@H](CCCNC(=N)N)NC(=O)c2cc(NC(=O)[C@@H](CCCNC(=N)N)NC(=O)c3cc(NC(=O)[C@@H](CCCNC(=N)N)NC(=O)c4cc(NC(C)=O)ccc4OC)ccc3OC)ccc2OC)cc1C(N)=O [Compound 93]
UFH (aPTT) EC50 [1]: 2.28 µg/mL
ENOX (FXa) EC50 [2]: 0.38 µg/mL
FONDAPX (FXa) EC50 [3]: 0.42 µg/mL

COc1ccc(NC(=O)[C@H](C)NC(=O)c2cc(NC(=O)[C@H](CCCCN)NC(=O)c3cc(NC(=O)[C@H](CCCCN)NC(=O)c4cc(NC(=O)[C@@H](N)CCCCN)ccc4OC)ccc3OC)ccc2OC)cc1C(N)=O [Compound 94]
UFH (aPTT) EC50 [1]: 4.94 µg/mL
ENOX (FXa) EC50 [2]: 1.32 µg/mL
FONDAPX (FXa) EC50 [3]: >20 µg/mL

COc1ccc(NC(=O)[C@H](CCCCN)NC(=O)c2cc(NC(=O)[C@H](CCCCN)NC(=O)c3cc(NC(=O)[C@H](CCCCN)NC(=O)c4cc(NC(=O)[C@H](C)N)ccc4OC)ccc3OC)ccc2OC)cc1C(N)=O [Compound 95]
UFH (aPTT) EC50 [1]: 2.42 µg/mL
ENOX (FXa) EC50 [2]: 0.5734 µg/mL
FONDAPX (FXa) EC50 [3]: 5.277 µg/mL

COc1ccc(NC(=O)[C@H](CCCCN)NC(=O)c2cc(NC(=O)[C@H](CCCCN)NC(=O)c3cc(NC(=O)[C@H](CCCCN)NC(=O)c4cc(NC(=O)[C@@H](N)CCCCN)ccc4OC)ccc3OC)ccc2OC)cc1C(=O)O [Compound 96]
UFH (aPTT) EC50 [1]: 3.59 µg/mL
ENOX (FXa) EC50 [2]: 5.567 µg/mL
FONDAPX (FXa) EC50 [3]: inactive

CSc1ccc(NC(=O)[C@H](CCCNC(=N)N)NC(=O)c2cc(NC(=O)[C@H](CCCNC(=N)N)NC(=O)c3cc(NC(=O)[C@H](CCCNC(=N)N)NC(=O)c4cc(NC(=O)[C@@H](N)CCCNC(=N)N)ccc4SC)ccc3SC)ccc2SC)cc1C(N)=O [Compound 97]
UFH (aPTT) EC50 [1]: >10 µg/mL
ENOX (FXa) EC50 [2]: 0.9842 µg/mL
FONDAPX (FXa) EC50 [3]: >20 µg/mL

COc1ccc(NC(=O)[C@H](CCCCCN)NC(=O)c2cc(NC(=O)[C@H](CCCCCN)NC(=O)c3cc(NC(=O)[C@H](CCCCCN)NC(=O)c4cc(NC(=O)[C@@H](N)CCCCCN)ccc4OC)ccc3OC)ccc2OC)cc1C(N)=O [Compound 98]
UFH (aPTT) EC50 [1]: 3.14 µg/mL
ENOX (FXa) EC50 [2]: 0.1731 µg/mL
FONDAPX (FXa) EC50 [3]: inactive

COc1ccc(C(=O)N[C@@H](CCCCN)C(=O)Nc2ccc(OC)c(C(=O)N[C@@H](CCCCN)C(=O)Nc3ccc(OC)c(C(=O)N[C@@H](CCCCN)C(=O)Nc4ccc(OC)c(C(N)=O)c4)c3)c2)cc1NC(=O)[C@@H](N)CCCCN [Compound 99]
UFH (aPTT) EC50 [1]: 1.54 µg/mL
ENOX (FXa) EC50 [2]: 0.2998 µg/mL
FONDAPX (FXa) EC50 [3]: 6.132 µg/mL

COc1ccc(NC(=O)[C@H](CCCCN)NC(=O)c2cc(NC(=O)[C@H](CCCCN)NC(=O)c3cc(NC(=O)[C@H](CCCCN)NC(=O)c4c[nH]c5ccccc45)ccc3OC)ccc2OC)cc1C(N)=O [Compound 100]
UFH (aPTT) EC50 [1]: 7.13 µg/mL
ENOX (FXa) EC50 [2]: 1.12 µg/mL
FONDAPX (FXa) EC50 [3]: 2.482 µg/mL

COc1ccc(NC(=O)[C@H](CCCCN)NC(=O)c2cc(NC(=O)[C@H](CCCCN)NC(=O)c3cc(NC(=O)[C@H](CCCCN)NC(=O)c4cc(NC(=O)[C@@H](N)Cc5c[nH]c6ccccc56)ccc4OC)ccc3OC)ccc2OC)cc1C(N)=O [Compound 101]
UFH (aPTT) EC50 [1]: approx 16 μg/mL
ENOX (FXa) EC50 [2]: 0.8434 µg/mL
FONDAPX (FXa) EC50 [3]: 4.158 µg/mL

COc1ccc(NC(=O)[C@H](CCCCN)NC(=O)c2cc(NC(=O)[C@H](CCCCN)NC(=O)c3cc(NC(=O)[C@H](CCCCN)NC(=O)c4cc(C(=O)NCCCCCN)c(OC)cc4OC)ccc3OC)ccc2OC)cc1C(N)=O [Compound 102]
UFH (aPTT) EC50 [1]: 3.32 µg/mL
ENOX (FXa) EC50 [2]: 0.3328 µg/mL
FONDAPX (FXa) EC50 [3]: 2.938 µg/mL

COc1cc(OC)c(C(=O)N[C@H]2CC[C@@H](NC(=O)c3cc(C(=O)NCCN(C)C)c(OCCCCCNC(=N)N)cc3OCCCCCNC(=N)N)CC2)cc1C(=O)N[C@H]1CC[C@@H](NC(=O)c2cc(C(=O)NCCN(C)C)c(OCCCCCNC(=N)N)cc2OCCCCCNC(=N)N)CC1 [Compound 103]
UFH (aPTT) EC50 [1]: >4 µg/mL
ENOX (FXa) EC50 [2]: 0.23 µg/mL
FONDAPX (FXa) EC50 [3]: 0.64 µg/mL

COc1cc(OC)c(C(=O)N[C@H]2CC[C@H](NC(=O)c3cc(C(=O)NCCN(C)C)c(OCCCCCNC(=N)N)cc3OCCCCCNC(=N)N)CC2)cc1C(=O)N[C@H]1CC[C@@H](NC(=O)c2cc(C(=O)NCCN(C)C)c(OCCCCCNC(=N)N)cc2OCCCCCNC(=N)N)CC1 [Compound 104]
UFH (aPTT) EC50 [1]: >10 µg/mL
ENOX (FXa) EC50 [2]: 0.36 µg/mL
FONDAPX (FXa) EC50 [3]: 2.02 µg/mL

COc1cc(OC)c(C(=O)N[C@H]2CC[C@@H](NC(=O)c3cc(C(=O)NCCN(C)C)c(OCCNC(=N)N)cc3OCCNC(=N)N)CC2)cc1C(=O)N[C@H]1CC[C@@H](NC(=O)c2cc(C(=O)NCCN(C)C)c(OCCNC(=N)N)cc2OCCNC(=N)N)CC1 [Compound 105]
UFH (aPTT) EC50 [1]: Inactive
ENOX (FXa) EC50 [2]: 2.07 µg/mL
FONDAPX (FXa) EC50 [3]: >20 µg/mL

COc1cc(OC)c(C(=O)N[C@H]2CC[C@H](NC(=O)c3cc(C(=O)NCCN(C)C)c(OCCNC(=N)N)cc3OCCNC(=N)N)CC2)cc1C(=O)N[C@H]1CC[C@H](NC(=O)c2cc(C(=O)NCCN(C)C)c(OCCNC(=N)N)cc2OCCNC(=N)N)CC1 [Compound 106]
UFH (aPTT) EC50 [1]: Inactive
ENOX (FXa) EC50 [2]: 1.66 µg/mL
FONDAPX (FXa) EC50 [3]: >20 µg/mL

COc1ccc(NC(=O)[C@H](CCCCN)NC(=O)c2cc(NC(=O)[C@H](CCCCN)NC(=O)c3cc(NC(=O)[C@H](CCCCN)NC(=O)c4cc(NC(=O)[C@@H](N)CCCCN)ccc4OC)ccc3OC)ccc2OC)cc1C(=O)NCC(=O)O [Compound 107]
UFH (aPTT) EC50 [1]: 1.34 µg/mL
ENOX (FXa) EC50 [2]: 0.498 µg/mL
FONDAPX (FXa) EC50 [3]: 6.961 µg/mL

COc1ccc(NC(=O)[C@H](CCCCN)NC(=O)c2cc(NC(=O)[C@H](CCCCN)NC(=O)c3cc(NC(=O)[C@H](CCCCN)NC(=O)c4cc(NC(=O)[C@@H](N)CCCCN)ccc4OC)ccc3OC)ccc2OC)cc1C(=O)NCCC(=O)O [Compound 108]
UFH (aPTT) EC50 [1]: 1.50 µg/mL
ENOX (FXa) EC50 [2]: 0.6085 µg/mL
FONDAPX (FXa) EC50 [3]: 10.57 µg/mL

COc1ccc(NC(=O)[C@H](CCCCN)NC(=O)c2cc(NC(=O)[C@H](CCCCN)NC(=O)c3cc(NC(=O)[C@H](CCCCN)NC(=O)c4cc(NC(=O)[C@@H](N)CCCCN)ccc4OC)ccc3OC)ccc2OC)cc1C(=O)N[C@@H](C)C(=O)O [Compound 109]
UFH (aPTT) EC50 [1]: 2.23 µg/mL
ENOX (FXa) EC50 [2]: 0.6089 µg/mL
FONDAPX (FXa) EC50 [3]: 9.853 µg/mL

COc1ccc(NC(=O)[C@H](CCCCN)NC(=O)c2cc(NC(=O)[C@H](CCCCN)NC(=O)c3cc(NC(=O)[C@H](CCCCN)NC(=O)c4cc(NC(=O)[C@@H](N)CCCCN)ccc4OC)ccc3OC)ccc2OC)cc1C(=O)N[C@@H](Cc1ccccc1)C(=O)O [Compound 110]
UFH (aPTT) EC50 [1]: 2.31 µg/mL
ENOX (FXa) EC50 [2]: 0.694 µg/mL
FONDAPX (FXa) EC50 [3]: 2.951 µg/mL
